# Source: patent US20150118304A1, “COMPOSITIONS COMPRISING SULFORAPHANE OR A SULFORAPHANE PRECURSOR AND MAGNESIUM” (Nutramax Laboratories, Inc., priority 2012, published 2015)
# Read-outs that look alike come from different tables or passages of the source.
# What was measured:
# [1] = test system: NAD(P)H:quinine oxidoreductase (NQO1); settings: oral administration; mammary epithelium; Sprague-Dawley rats; cited from earlier work
# [2] = test system: monocyte chemoattractant protein (MCP-1); settings: 24 hours, RAW cells activated with 1 μg/mL LPS
# Protocol: The following study was conducted to determine the effect of the combination of sulforaphane and magnesium sulfate (MgSO4) on expression of monocyte chemoattractant protein (MCP-1), which is a mediator of inflammation. MCP-1 is chemokine which attracts monocytes, macrophages, and lymphocytes to sites of inflammation. A reduction in MCP-1 is beneficial for the health of endothelial cells which line the cardiovascular system.
# In the study, RAW cells were activated with 1 μg/mL lipopolysaccharide (LPS) for 30 minutes to stimulate the induction of MCP-1 gene expression. Following LPS treatment, the cells were treated with one of the following: (i) DMSO (vehicle control), (ii) 0.5 μM SFN, (iii) 2.5 mM MgSO4, or (iv) the combination of 0.5 μM SFN and 2.5 mM MgSO4. After treatment for 24 hours, the MCP-1 levels were assessed via quantitative RT-PCR.
# heme oxygenase-1 (HO-1) = settings: oral administration; mammary epithelium; Sprague-Dawley rats; cited from earlier work
# mammary tumors = settings: Sprague-Dawley rats; cited from earlier work
# myrosinase [3] = experiment: Equimolar conversion of glucoraphanin to sulforaphane by myrosinase, with and without ascorbic acid; type: biochemical; settings: Part 2; broccoli seed extract fixed at 250 mg
# Protocol: A two-part experiment was conducted to further elucidate the role of ascorbic acid in modulating myrosinase activity. […] A control sample contained no ascorbic acid, and the enzymatic conversion proceeded unassisted by a co-factor. PART 1. […] PART 2. While keeping the amount of broccoli seed extract fixed at 250 mg, the concentration of ascorbic acid was varied from 0.4 mmol/Liter to 3.8 mmol/Liter.
# myrosinase [4] = experiment: Conversion of glucoraphanin to sulforaphane in Simulated Intestinal Fluid; type: biochemical, broccoli; settings: 0.25 to 1.00 mmol/Liter ascorbic acid, 38° C., especially at the earlier stages, FIG. 4
# Protocol: Simulated Intestinal Fluid (SIF) powder, a commercially supplied concentrate closely approximating the human intestinal content in terms of composition, pH and ionic strength, was used. The experiment utilized a USP Dissolution Apparatus 2 (paddles), where into six dissolution vessels 500 mL of Simulated Intestinal Fluid was dispensed, along with 150 mg of freeze-dried broccoli sprout powder as a source of myrosinase. […] Aliquots were withdrawn every 15 minutes, and assayed for sulforaphane.
# [5] = test system: broccoli sprout-derived myrosinase; experiment: Hydrolysis of glucoraphanin (broccoli seed extract) by myrosinase as a function of ascorbic acid concentration; type: biochemical; settings: 38° C.; for Slope (rate of glucoraphanin consumption): linear regression 0-60 min
# Protocol: About 250 mg of broccoli seed extract containing about 12% (w/w) glucoraphanin were subjected to hydrolysis by a fixed concentration of broccoli sprout-derived myrosinase in the presence of variable concentration of ascorbic acid, ranging from 0 to 600 μmoles/Liter. The reaction mixtures were thermostated at 38° C.; aliquots were withdrawn every 15 minutes for 60 minutes, and concentration of glucoraphanin determined chromatographically. The rate of glucoraphanin consumption was interpreted as the rate its conversion to sulforaphane. Graphical representation of glucoraphanin content reduction as a function of increasing ascorbic acid concentration results in a series of linear plots; the slopes of the linear regression lines reflect the rate of glucoraphanin consumption, in μmoles/minute. It is apparent that in the presence of 600 μmoles/Liter concentration of ascorbic acid, the reaction rate increased 13-fold relative to that which proceeded in the absence of modulatory effects of ascorbic acid.
structure (smiles),measurement,setting,value
"C[S+]([O-])CCCCN=C=S (centres unmarked) [sulforaphane, 1-isothiocyanato-4-methylsulfinylbutane]",increase in NQO1 enzymatic activity,[1],3 fold
same,decrease in MCP-1 levels,[2]; 0.5 μM SFN,approximately 29%
same,elevated immunostaining of HO-1,heme oxygenase-1 (HO-1),4 fold
same,blocking the formation of mammary tumors,mammary tumors,effective in blocking the formation of mammary tumors
O=S(=O)([O-])[O-].[Mg+2] [magnesium sulfate],decrease in MCP-1 levels,[2]; 2.5 mM MgSO4,approximately 16%
"O=C1O[C@H]([C@@H](O)CO)C(O)=C1O [Ascorbic Acid, ascorbic acid]","ascorbic acid concentration up to which myrosinase-promoted conversion increases apparently linearly, then levels off",myrosinase [3],about 2 mmol/L
same,relation of sulforaphane yield to ascorbic acid concentration,myrosinase [4],direct correlation between larger yield of sulforaphane and higher concentrations of ascorbic acid
same,increase of reaction rate (glucoraphanin consumption),"[5]; 600 μmoles/Liter ascorbic acid, relative to absence of ascorbic acid",13 fold
same,Slope (rate of glucoraphanin consumption),[5]; ascorbic acid 50 μM,-0.286 µmol/min
same,glucoraphanin (GR) content,"[5]; ascorbic acid 50 μM, time 0 min",93.36 µmol
same,glucoraphanin (GR) content,"[5]; ascorbic acid 50 μM, time 15 min",89.20 µmol
same,glucoraphanin (GR) content,"[5]; ascorbic acid 50 μM, time 30 min",84.24 µmol
same,glucoraphanin (GR) content,"[5]; ascorbic acid 50 μM, time 45 min",80.30 µmol
same,glucoraphanin (GR) content,"[5]; ascorbic acid 50 μM, time 60 min",76.36 µmol
same,Slope (rate of glucoraphanin consumption),[5]; ascorbic acid 125 μM,-0.5622 µmol/min
same,glucoraphanin (GR) content,"[5]; ascorbic acid 125 μM, time 0 min",93.36 µmol
same,glucoraphanin (GR) content,"[5]; ascorbic acid 125 μM, time 15 min",84.52 µmol
same,glucoraphanin (GR) content,"[5]; ascorbic acid 125 μM, time 30 min",75.92 µmol
same,glucoraphanin (GR) content,"[5]; ascorbic acid 125 μM, time 45 min",68.09 µmol
same,glucoraphanin (GR) content,"[5]; ascorbic acid 125 μM, time 60 min",59.41 µmol
same,Slope (rate of glucoraphanin consumption),[5]; ascorbic acid 250 μM Filtered,-0.4714 µmol/min
same,glucoraphanin (GR) content,"[5]; ascorbic acid 250 μM Filtered, time 0 min",93.36 µmol
same,glucoraphanin (GR) content,"[5]; ascorbic acid 250 μM Filtered, time 15 min",86.31 µmol
same,glucoraphanin (GR) content,"[5]; ascorbic acid 250 μM Filtered, time 30 min",79.44 µmol
same,glucoraphanin (GR) content,"[5]; ascorbic acid 250 μM Filtered, time 45 min",71.94 µmol
same,glucoraphanin (GR) content,"[5]; ascorbic acid 250 μM Filtered, time 60 min",65.18 µmol
same,Slope (rate of glucoraphanin consumption),[5]; ascorbic acid 250 μM,-0.7901 µmol/min
same,glucoraphanin (GR) content,"[5]; ascorbic acid 250 μM, time 0 min",93.36 µmol
same,glucoraphanin (GR) content,"[5]; ascorbic acid 250 μM, time 15 min",80.95 µmol
same,glucoraphanin (GR) content,"[5]; ascorbic acid 250 μM, time 30 min",69.06 µmol
same,glucoraphanin (GR) content,"[5]; ascorbic acid 250 μM, time 45 min",57.63 µmol
same,glucoraphanin (GR) content,"[5]; ascorbic acid 250 μM, time 60 min",45.76 µmol
same,Slope (rate of glucoraphanin consumption),[5]; ascorbic acid 400 μM,-1.007 µmol/min
same,glucoraphanin (GR) content,"[5]; ascorbic acid 400 μM, time 0 min",93.36 µmol
same,glucoraphanin (GR) content,"[5]; ascorbic acid 400 μM, time 15 min",78.32 µmol
same,glucoraphanin (GR) content,"[5]; ascorbic acid 400 μM, time 30 min",62.78 µmol
same,glucoraphanin (GR) content,"[5]; ascorbic acid 400 μM, time 45 min",47.67 µmol
same,glucoraphanin (GR) content,"[5]; ascorbic acid 400 μM, time 60 min",33.15 µmol
same,Slope (rate of glucoraphanin consumption),[5]; ascorbic acid 600 μM,-1.2 µmol/min
same,glucoraphanin (GR) content,"[5]; ascorbic acid 600 μM, time 0 min",93.36 µmol
same,glucoraphanin (GR) content,"[5]; ascorbic acid 600 μM, time 15 min",75.02 µmol
same,glucoraphanin (GR) content,"[5]; ascorbic acid 600 μM, time 30 min",55.66 µmol
same,glucoraphanin (GR) content,"[5]; ascorbic acid 600 μM, time 45 min",37.50 µmol
same,glucoraphanin (GR) content,"[5]; ascorbic acid 600 μM, time 60 min",22.09 µmol
